# Test results: ChEMBL document CHEMBL1201862, “PubChem BioAssay data set” (2004)
#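 Grown in 96-well plates, cells were treated for 48 hours with each compound at five concentrations. Insufficient inhibition: endpoint recorded as highest concentration tested. At the GI50, growth is halved.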 The source made the active and inactive calls. Rule as the data show it: active = GI50 up to about 1.1 µM and inactive = higher.
# What was measured:
# Assay in all cases: inhibition of tumour cell growth, NCI panel, 48 h
# NCI-H522 = system: NCI-H522
# NCI-H23 = system: NCI-H23
# NCI/ADR-RES = system: NCI/ADR-RES
# M14 = system: M14
# CCRF-CEM = system: CCRF-CEM
# HL-60 = system: HL-60
# RPMI-8226 = system: RPMI-8226
# SNB-75 = system: SNB-75
# OVCAR-8 = system: OVCAR-8
# COLO 205 = system: COLO 205
# SF-295 = system: SF-295
# Hs-578T = system: Hs-578T
# A549 = system: A549
# ACHN = system: ACHN
# UACC-257 = system: UACC-257
# EKVX = system: EKVX
# SF-268 = system: SF-268
# HOP-92 = system: HOP-92
# MCF7 = system: MCF7
# RXF 393 = system: RXF 393
# K562 = system: K562
# PC-3 = system: PC-3
# SK-MEL-2 = system: SK-MEL-2
# MOLT-4 = system: MOLT-4
# OVCAR-4 = system: OVCAR-4
# DU-145 = system: DU-145
# 786-0 = system: 786-0
# MDA-N = system: MDA-N
# SN12C = system: SN12C
# NCI-H226 = system: NCI-H226
# IGROV-1 = system: IGROV-1
# OVCAR-5 = system: OVCAR-5
# HCT-116 = system: HCT-116
# KM12 = system: KM12
# UACC-62 = system: UACC-62
# A498 = system: A498
# SNB-19 = system: SNB-19
# SF-539 = system: SF-539
# T47D = system: T47D
# NCI-H460 = system: NCI-H460
# SR = system: SR
# OVCAR-3 = system: OVCAR-3
# U-251 = system: U-251
# BT-549 = system: BT-549
# SK-OV-3 = system: SK-OV-3
# SK-MEL-28 = system: SK-MEL-28
# HCT-15 = system: HCT-15
# MDA-MB-435 = system: MDA-MB-435
# HT-29 = system: HT-29
# HOP-62 = system: HOP-62
# SW-620 = system: SW-620
# UO-31 = system: UO-31
# LOX IMVI = system: LOX IMVI
# SK-MEL-5 = system: SK-MEL-5
# TK-10 = system: TK-10
# CAKI-1 = system: CAKI-1
# HCC 2998 = system: HCC 2998
structure (smiles),measurement,setting,value
COc1cc2c(c(O)c1O)C(=O)C1CCC(=O)N1C2c1cccc2ccccc12 (stereo unspecified),GI50,NCI-H522,> 50 µM (inactive)
same,GI50,NCI-H23,> 50 µM (inactive)
same,GI50,NCI/ADR-RES,> 50 µM (inactive)
same,GI50,M14,> 50 µM (inactive)
same,GI50,CCRF-CEM,> 50 µM (inactive)
same,GI50,HL-60,> 50 µM (inactive)
same,GI50,RPMI-8226,> 50 µM (inactive)
same,GI50,SNB-75,> 50 µM (inactive)
same,GI50,OVCAR-8,> 50 µM (inactive)
same,GI50,COLO 205,> 50 µM (inactive)
same,GI50,SF-295,> 50 µM (inactive)
same,GI50,Hs-578T,> 50 µM (inactive)
same,GI50,A549,30.3 µM (inactive)
same,GI50,ACHN,> 50 µM (inactive)
same,GI50,UACC-257,> 50 µM (inactive)
same,GI50,EKVX,> 50 µM (inactive)
same,GI50,SF-268,> 50 µM (inactive)
same,GI50,HOP-92,> 50 µM (inactive)
same,GI50,MCF7,> 50 µM (inactive)
same,GI50,RXF 393,6.28 µM (inactive)
same,GI50,K562,> 50 µM (inactive)
same,GI50,PC-3,> 50 µM (inactive)
same,GI50,SK-MEL-2,> 50 µM (inactive)
same,GI50,MOLT-4,> 50 µM (inactive)
same,GI50,OVCAR-4,> 50 µM (inactive)
same,GI50,DU-145,> 50 µM (inactive)
same,GI50,786-0,> 50 µM (inactive)
same,GI50,MDA-N,> 50 µM (inactive)
same,GI50,SN12C,> 50 µM (inactive)
same,GI50,NCI-H226,> 50 µM (inactive)
same,GI50,IGROV-1,> 50 µM (inactive)
same,GI50,OVCAR-5,> 50 µM (inactive)
same,GI50,HCT-116,> 50 µM (inactive)
same,GI50,KM12,> 50 µM (inactive)
same,GI50,UACC-62,49.9 µM (inactive)
same,GI50,A498,> 50 µM (inactive)
same,GI50,SNB-19,> 50 µM (inactive)
same,GI50,SF-539,> 50 µM (inactive)
same,GI50,T47D,> 50 µM (inactive)
same,GI50,NCI-H460,> 50 µM (inactive)
same,GI50,SR,> 50 µM (inactive)
same,GI50,OVCAR-3,> 50 µM (inactive)
same,GI50,U-251,> 50 µM (inactive)
same,GI50,BT-549,> 50 µM (inactive)
same,GI50,SK-OV-3,> 50 µM (inactive)
same,GI50,SK-MEL-28,> 50 µM (inactive)
same,GI50,HCT-15,> 50 µM
same,GI50,MDA-MB-435,> 50 µM (inactive)
same,GI50,HT-29,> 50 µM (inactive)
same,GI50,HOP-62,> 50 µM (inactive)
same,GI50,SW-620,> 50 µM (inactive)
same,GI50,UO-31,> 50 µM (inactive)
CC(=O)N[C@@H](Cc1ccc(O)cn1)C(=O)NCc1cccc(Cl)c1,GI50,NCI-H522,> 100 µM (inactive)
same,GI50,NCI-H23,> 100 µM (inactive)
same,GI50,LOX IMVI,> 100 µM (inactive)
same,GI50,SK-MEL-5,> 100 µM (inactive)
same,GI50,NCI/ADR-RES,> 100 µM (inactive)
same,GI50,M14,> 100 µM (inactive)
same,GI50,CCRF-CEM,> 100 µM (inactive)
same,GI50,HL-60,37.8 µM (inactive)
same,GI50,RPMI-8226,> 100 µM (inactive)
same,GI50,COLO 205,> 100 µM (inactive)
same,GI50,SF-295,> 100 µM (inactive)
same,GI50,Hs-578T,> 100 µM (inactive)
same,GI50,A549,> 100 µM (inactive)
same,GI50,ACHN,> 100 µM (inactive)
same,GI50,UACC-257,> 100 µM (inactive)
same,GI50,TK-10,> 100 µM (inactive)
same,GI50,EKVX,> 100 µM (inactive)
same,GI50,SF-268,> 100 µM (inactive)
same,GI50,MCF7,> 100 µM (inactive)
same,GI50,RXF 393,> 100 µM (inactive)
same,GI50,K562,> 100 µM (inactive)
same,GI50,PC-3,> 100 µM (inactive)
same,GI50,SK-MEL-2,> 100 µM (inactive)
same,GI50,MOLT-4,> 100 µM (inactive)
same,GI50,OVCAR-4,> 100 µM (inactive)
same,GI50,DU-145,> 100 µM (inactive)
same,GI50,786-0,> 100 µM (inactive)
same,GI50,MDA-N,> 100 µM (inactive)
same,GI50,SN12C,> 100 µM (inactive)
same,GI50,CAKI-1,> 100 µM (inactive)
same,GI50,NCI-H226,> 100 µM (inactive)
same,GI50,IGROV-1,> 100 µM (inactive)
same,GI50,OVCAR-5,> 100 µM (inactive)
same,GI50,HCT-116,> 100 µM (inactive)
same,GI50,KM12,> 100 µM (inactive)
same,GI50,HCC 2998,> 100 µM (inactive)
same,GI50,UACC-62,> 100 µM (inactive)
same,GI50,A498,> 100 µM (inactive)
same,GI50,SNB-19,> 100 µM (inactive)
same,GI50,SF-539,> 100 µM (inactive)
same,GI50,T47D,> 100 µM (inactive)
same,GI50,NCI-H460,> 100 µM (inactive)
same,GI50,SR,> 100 µM (inactive)
same,GI50,OVCAR-3,> 100 µM (inactive)
same,GI50,U-251,> 100 µM (inactive)
same,GI50,BT-549,> 100 µM (inactive)
same,GI50,SK-OV-3,> 100 µM (inactive)
same,GI50,SK-MEL-28,> 100 µM (inactive)
same,GI50,HCT-15,> 100 µM
same,GI50,MDA-MB-435,> 100 µM (inactive)
same,GI50,HT-29,> 100 µM (inactive)
same,GI50,HOP-62,> 100 µM (inactive)
same,GI50,SW-620,> 100 µM (inactive)
same,GI50,UO-31,> 100 µM (inactive)
